# Source: patent publication US6875582B1 (priority 1999, dated 2005)
# Assays:
# [1] = test system: K. pneumoniae Tim 19 CTX^R mutants; assay: Multi-drug-resistance phenotype of CTX-selected mutants; format: cell-based, Klebsiella pneumoniae; conditions: CTX^R mutants (8 analyzed), MNNG continuous culture, selected with CTX 2-550 μg/ml
# [2] = test system: WT K. pneumoniae Tim 19 (TEM-1 beta-lactamase); format: cell-based, Klebsiella pneumoniae; conditions: for Drug-Resistance Phenotype: WT K. pneumoniae Tim 19, TEM-1; for Resistance or sensitivity of clinical isolate: K. pneumoniae strain Tim 19 containing TEM-1 beta-lactamase
# E. coli ATCC 11775 = format: cell-based
# [3] = test system: E. coli 11775 NA^R mutants; assay: Antimicrobial disk-diffusion test (antibiogram) of clones selected on nalidixic acid gradient plates; format: cell-based
smiles,measurement,setting,value
"C[C@H]1[C@H](NC(=O)/C(=N\OC(C)(C)C(=O)O)c2csc(N)n2)C(=O)N1S(=O)(=O)O [ATM, aztreonum]",Drug-Resistance Phenotype,[1],"CTX^R, CAZ^R, FOX^R, ATM^R"
same,Drug-Resistance Phenotype,[2],"CTX^S, CAZ^S, FOX^S, ATM^S"
"CC(C)(O/N=C(\C(=O)N[C@@H]1C(=O)N2C(C(=O)[O-])=C(C[n+]3ccccc3)CS[C@H]12)c1csc(N)n1)C(=O)O [CAZ, ceftazidime]",Drug-Resistance Phenotype,[1],"CTX^R, CAZ^R, FOX^R, ATM^R"
same,Resistance or sensitivity of clinical isolate,[2],sensitive
same,Drug-Resistance Phenotype,[2],"CTX^S, CAZ^S, FOX^S, ATM^S"
"CO/N=C(\C(=O)N[C@@H]1C(=O)N2C(C(=O)O)=C(COC(C)=O)CS[C@H]12)c1csc(N)n1 [CTX, cefotaxime]",Drug-Resistance Phenotype,[1],"CTX^R, CAZ^R, FOX^R, ATM^R"
same,Resistance or sensitivity of clinical isolate,[2],sensitive
same,Drug-Resistance Phenotype,[2],"CTX^S, CAZ^S, FOX^S, ATM^S"
"CCOS(C)(=O)=O [EMS, Ethyl Methanesulfonate]",Mutant Frequencies (NA^R phenotype),E. coli ATCC 11775,1.2 × 10^−7
same,Survival (%),E. coli ATCC 11775,64%
"CO[C@@]1(NC(=O)Cc2cccs2)C(=O)N2C(C(=O)O)=C(COC(N)=O)CS[C@@H]21 [FOX, cefoxitin]",Drug-Resistance Phenotype,[1],"CTX^R, CAZ^R, FOX^R, ATM^R"
same,Resistance or sensitivity of clinical isolate,[2],sensitive
same,Drug-Resistance Phenotype,[2],"CTX^S, CAZ^S, FOX^S, ATM^S"
"CCn1cc(C(=O)O)c(=O)c2ccc(C)nc21 [NA, nalidixic acid]",Phenotype (nalidixic acid resistance),"[3]; mutant D2C2-a, EMS continuous culture, 82 generations, Gly-81→Cys",Partially NA^R
same,Phenotype (nalidixic acid resistance),"[3]; mutant D2C2-h, EMS continuous culture, 62 generations, Gly-81→Cys",Partially NA^R
same,Phenotype (nalidixic acid resistance),"[3]; mutant D2C2-l, EMS continuous culture, 62 generations, Gly-82 (GAC)→Asn",Partially NA^R
same,Phenotype (nalidixic acid resistance),"[3]; mutant D3NX-E5, EMS continuous culture, 135 generations, Ser-83→Leu",Completely NA^R
same,Phenotype (nalidixic acid resistance),"[3]; mutant D3NX-E6, EMS continuous culture, 135 generations, Ser-83→Leu",Completely NA^R
same,Phenotype (nalidixic acid resistance),"[3]; mutant D7NX-E1, EMS continuous culture, 403 generations, Ser-83→Leu",Completely NA^R
same,Phenotype (nalidixic acid resistance),"[3]; mutant D7NX-E2, EMS continuous culture, 403 generations, Ser-83→Leu",Completely NA^R
same,Phenotype (nalidixic acid resistance),"[3]; mutant NX-E09, EMS, batch culture, gyrA Asp-87→Ile",Partially NA^R
same,Phenotype (nalidixic acid resistance),"[3]; mutant NX-E10, EMS, batch culture, gyrA Ser-83→Leu",Completely NA^R
same,Phenotype (nalidixic acid resistance),"[3]; mutant NX-M3, MNNG, batch culture, gyrA Asp-87→Gly",Partially NA^R
same,Phenotype (nalidixic acid resistance),"[3]; mutant NX-M5, MNNG, batch culture, gyrA Asp-87→Asn",Partially NA^R
same,Phenotype (nalidixic acid resistance),"[3]; mutant NX-M6, MNNG, batch culture, gyrA Asp-87→Gly",Partially NA^R
same,Phenotype (nalidixic acid resistance),"[3]; mutant NX-N6, NQO, batch culture, gyrA Ser-83→Leu",Completely NA^R
"O=[N+]([O-])c1cc[n+]([O-])c2ccccc12 [NQO, 4Nitroquinoline-lxide]",Mutant Frequencies (NA^R phenotype),E. coli ATCC 11775,0.6 × 10^−8
same,Survival (%),E. coli ATCC 11775,77%
CC1(C)S[C@@H]2[C@H](NC(=O)[C@H](N)c3ccccc3)C(=O)N2[C@H]1C(=O)O [ampicillin],Resistance or sensitivity of clinical isolate,[2],resistance
